From ChEMBL document CHEMBL1140558, “An atom efficient, solvent-free, green synthesis and antimycobacterial evaluation of 2-amino-6-methyl-4-aryl-8-[(E)-arylmethylidene]-5,6,7,8-tetrahydro-4H-pyrano[3,2-c]pyridine-3-carbonitriles” (2007)
≈ marks a conversion by molar mass, not a printed value.

Tested on: Mycobacterium tuberculosis
Assay: Antimycobacterial activity against multidrug-resistant Mycobacterium tuberculosis by agar dilution method
Type: functional

Row | SMILES | MIC [µM]
1 | CN1CC2=C(OC(N)=C(C#N)C2c2ccc(F)cc2)/C(=C/c2ccc(F)cc2)C1 (stereo not drawn) | 0.97 (≈ 0.38 µg/mL)
2 | CN1CC2=C(OC(N)=C(C#N)C2c2cccc(F)c2)/C(=C/c2cccc(F)c2)C1 (stereo not drawn) | 1.99 (≈ 0.779 µg/mL)
3 | CN1CC2=C(OC(N)=C(C#N)C2c2ccc(N(C)C)cc2)/C(=C/c2ccc(N(C)C)cc2)C1 (stereo not drawn) | 0.43 (≈ 0.19 µg/mL)
4 | CN1CC2=C(OC(N)=C(C#N)C2c2ccccc2Cl)/C(=C/c2ccccc2Cl)C1 (stereo not drawn) | 3.68 (≈ 1.56 µg/mL)
5 | CN1CC2=C(OC(N)=C(C#N)C2c2cccc([N+](=O)[O-])c2)/C(=C/c2cccc([N+](=O)[O-])c2)C1 (stereo not drawn) | 1.75 (≈ 0.78 µg/mL)
6 | CN1CC2=C(OC(N)=C(C#N)C2c2ccc(Cl)cc2)/C(=C/c2ccc(Cl)cc2)C1 (stereo not drawn) | 1.84 (≈ 0.781 µg/mL)
7 | COc1c(N2CCNC(C)C2)c(F)cc2c(=O)c(C(=O)O)cn(C3CC3)c12 (stereo not drawn) [GATIFLOXACIN] | 8.34 (≈ 3.13 µg/mL)
8 | NNC(=O)c1ccncc1 [ISONIAZID] | 45.6 (≈ 6.25 µg/mL)
